Reference: patent US20220364989A1, “METHOD FOR MEASURING PHOTOTOXICITY OR PHOTOALLERGY AND REAGENT FOR USE THEREIN” (FUJIFILM Corporation, priority 2018, published 2022)
Like-named read-outs stand apart in the source and are kept apart here.

Assays:
[1] = NAL depletion under and without ultraviolet irradiation, HPLC with UV detection (281 nm)
[2] = Average score of NAC and NAL depletion and phototoxicity or photoallergy determination, fluorescence detection
[3] = NAL depletion under and without ultraviolet irradiation, HPLC with fluorescence detection (284 nm excitation, 333 nm fluorescence)
[4] = Average score of NAC and NAL depletion and phototoxicity or photoallergy determination, UV detection
[5] = NAC depletion under and without ultraviolet irradiation, HPLC with UV detection (281 nm)
[6] = NAC depletion under and without ultraviolet irradiation, HPLC with fluorescence detection (284 nm excitation, 333 nm fluorescence)
[7] = cited from earlier work
[8] = cited from earlier work; remark: listed apart in the source
[9] = without light irradiation, single compound
[10] = photoallergic compound concentration 0.05 mg/mL
[11] = photoallergic compound concentration 0.2 mg/mL
[12] = photoallergic compound concentration 0.5 mg/mL
[13] = without light irradiation, photoallergic compound concentration 0.05 mg/mL
[14] = without light irradiation, photoallergic compound concentration 0.2 mg/mL
[15] = without light irradiation, photoallergic compound concentration 0.5 mg/mL
[16] = under light irradiation, photoallergic compound concentration 0.05 mg/mL
[17] = under light irradiation, photoallergic compound concentration 0.2 mg/mL
[18] = under light irradiation, photoallergic compound concentration 0.5 mg/mL
[19] = under light irradiation, single compound

CC(O)CO (racemic) [compound 54]
Difference in depletion (under light irradiation - without light irradiation) NAL (%) ([1]; single compound): 0.0% | NAL Depletion (%) [1, 9]: 0.0% | Difference in depletion (under light irradiation - without light irradiation) Average score (%) ([2]; single compound): 0.3% | Average score (%) [2, 9]: 0.0% | Difference in depletion (under light irradiation - without light irradiation) NAL (%) ([3]; single compound): 0.7% | NAL Depletion (%) [3, 9]: 0.0% | Difference in depletion (under light irradiation - without light irradiation) Average score (%) ([4]; single compound): 0.1% | Average score (%) [4, 9]: 0.0% | Difference in depletion (under light irradiation - without light irradiation) NAC (%) ([5]; single compound): 0.2% | NAC Depletion (%) [5, 9]: 0.0% | Difference in depletion (under light irradiation - without light irradiation) NAC (%) ([6]; single compound): 0.0% | NAC Depletion (%) [6, 9]: 0.0%

NS(=O)(=O)c1cc2c(cc1Cl)NCNS2(=O)=O [2-4]
Difference in depletion (under light irradiation - without light irradiation) NAL (%) [1, 10]: 0.3% | Difference in depletion (under light irradiation - without light irradiation) NAL (%) [1, 11]: 1.4% | Difference in depletion (under light irradiation - without light irradiation) NAL (%) [1, 12]: 4.4% | NAL Depletion (%) under light irradiation [1, 10]: 0.3% | NAL Depletion (%) under light irradiation [1, 11]: 1.4% | NAL Depletion (%) under light irradiation [1, 12]: 4.4% | NAL Depletion (%) without light irradiation [1, 13]: 0.0% | NAL Depletion (%) without light irradiation [1, 14]: 0.0% | NAL Depletion (%) without light irradiation [1, 15]: 0.0% | Difference in depletion (under light irradiation - without light irradiation) Average score (%) [2, 10]: 12.3% | Difference in depletion (under light irradiation - without light irradiation) Average score (%) [2, 11]: 32.1% | Difference in depletion (under light irradiation - without light irradiation) Average score (%) [2, 12]: 45.8% | Average score (%) under light irradiation [2, 16]: 12.3% | Average score (%) under light irradiation [2, 17]: 32.1% | Average score (%) under light irradiation [2, 18]: 45.8% | Average score (%) without light irradiation [2, 13]: 0.0% | Average score (%) without light irradiation [2, 14]: 0.0% | Average score (%) without light irradiation [2, 15]: 0.0% | Difference in depletion (under light irradiation - without light irradiation) NAL (%) [3, 10]: 2.6% | Difference in depletion (under light irradiation - without light irradiation) NAL (%) [3, 11]: 4.0% | Difference in depletion (under light irradiation - without light irradiation) NAL (%) [3, 12]: 5.6% | NAL Depletion (%) under light irradiation [3, 16]: 2.6% | NAL Depletion (%) under light irradiation [3, 17]: 4.0% | NAL Depletion (%) under light irradiation [3, 18]: 5.6% | NAL Depletion (%) without light irradiation [3, 13]: 0.0% | NAL Depletion (%) without light irradiation [3, 14]: 0.0% | NAL Depletion (%) without light irradiation [3, 15]: 0.0% | Difference in depletion (under light irradiation - without light irradiation) Average score (%) [4, 11]: 30.8% | Difference in depletion (under light irradiation - without light irradiation) Average score (%) [4, 12]: 44.5% | Average score (%) under light irradiation [4, 11]: 30.8% | Average score (%) under light irradiation [4, 12]: 44.5% | Average score (%) without light irradiation [4, 13]: 0.0% | Average score (%) without light irradiation [4, 14]: 0.0% | Average score (%) without light irradiation [4, 15]: 0.0% | Difference in depletion (under light irradiation - without light irradiation) NAC (%) [5, 10]: 20.9% | Difference in depletion (under light irradiation - without light irradiation) NAC (%) [5, 11]: 60.1% | Difference in depletion (under light irradiation - without light irradiation) NAC (%) [5, 12]: 84.5% | NAC Depletion (%) under light irradiation [5, 10]: 20.9% | NAC Depletion (%) under light irradiation [5, 11]: 60.1% | NAC Depletion (%) under light irradiation [5, 12]: 84.5% | NAC Depletion (%) without light irradiation [5, 13]: 0.0% | NAC Depletion (%) without light irradiation [5, 14]: 0.0% | NAC Depletion (%) without light irradiation [5, 15]: 0.0% | Difference in depletion (under light irradiation - without light irradiation) NAC (%) [6, 10]: 21.9% | Difference in depletion (under light irradiation - without light irradiation) NAC (%) [6, 11]: 60.2% | Difference in depletion (under light irradiation - without light irradiation) NAC (%) [6, 12]: 85.9% | NAC Depletion (%) under light irradiation [6, 16]: 21.9% | NAC Depletion (%) under light irradiation [6, 17]: 60.2% | NAC Depletion (%) under light irradiation [6, 18]: 85.9% | NAC Depletion (%) without light irradiation [6, 13]: 0.0% | NAC Depletion (%) without light irradiation [6, 14]: 0.0% | NAC Depletion (%) without light irradiation [6, 15]: 0.0%

Nc1ccc(S(N)(=O)=O)cc1 [3-4, Sulfanilamide]
Difference in depletion (under light irradiation - without light irradiation) NAL (%) [1, 10]: 0.0% | Difference in depletion (under light irradiation - without light irradiation) NAL (%) [1, 11]: 0.3% | Difference in depletion (under light irradiation - without light irradiation) NAL (%) [1, 12]: 0.0% | NAL Depletion (%) under light irradiation [1, 10]: 0.0% | NAL Depletion (%) under light irradiation [1, 11]: 0.3% | NAL Depletion (%) under light irradiation [1, 12]: 0.0% | NAL Depletion (%) without light irradiation [1, 13]: 0.0% | NAL Depletion (%) without light irradiation [1, 14]: 0.0% | NAL Depletion (%) without light irradiation [1, 15]: 0.0% | Difference in depletion (under light irradiation - without light irradiation) Average score (%) [2, 10]: 11.8% | Difference in depletion (under light irradiation - without light irradiation) Average score (%) [2, 12]: 40.6% | Average score (%) under light irradiation [2, 16]: 11.8% | Average score (%) under light irradiation [2, 18]: 40.6% | Average score (%) without light irradiation [2, 13]: 0.0% | Average score (%) without light irradiation [2, 14]: 0.0% | Average score (%) without light irradiation [2, 15]: 0.0% | Difference in depletion (under light irradiation - without light irradiation) NAL (%) [3, 10]: 2.4% | Difference in depletion (under light irradiation - without light irradiation) NAL (%) [3, 11]: 1.8% | Difference in depletion (under light irradiation - without light irradiation) NAL (%) [3, 12]: 3.1% | NAL Depletion (%) under light irradiation [3, 16]: 2.4% | NAL Depletion (%) under light irradiation [3, 17]: 1.8% | NAL Depletion (%) under light irradiation [3, 18]: 3.1% | NAL Depletion (%) without light irradiation [3, 13]: 0.0% | NAL Depletion (%) without light irradiation [3, 14]: 0.0% | NAL Depletion (%) without light irradiation [3, 15]: 0.0% | Difference in depletion (under light irradiation - without light irradiation) Average score (%) [4, 10]: 10.2% | Difference in depletion (under light irradiation - without light irradiation) Average score (%) [4, 12]: 39.7% | Average score (%) under light irradiation [4, 10]: 10.2% | Average score (%) under light irradiation [4, 12]: 39.7% | Average score (%) without light irradiation [4, 13]: 0.0% | Average score (%) without light irradiation [4, 14]: 0.0% | Average score (%) without light irradiation [4, 15]: 0.0% | Difference in depletion (under light irradiation - without light irradiation) NAC (%) [5, 11]: 51.3% | Difference in depletion (under light irradiation - without light irradiation) NAC (%) [5, 12]: 79.4% | NAC Depletion (%) under light irradiation [5, 11]: 51.3% | NAC Depletion (%) under light irradiation [5, 12]: 79.4% | NAC Depletion (%) without light irradiation [5, 13]: 0.0% | NAC Depletion (%) without light irradiation [5, 14]: 0.0% | NAC Depletion (%) without light irradiation [5, 15]: 0.0% | Difference in depletion (under light irradiation - without light irradiation) NAC (%) [6, 11]: 49.9% | Difference in depletion (under light irradiation - without light irradiation) NAC (%) [6, 12]: 78.2% | NAC Depletion (%) under light irradiation [6, 17]: 49.9% | NAC Depletion (%) under light irradiation [6, 18]: 78.2% | NAC Depletion (%) without light irradiation [6, 13]: 0.0% | NAC Depletion (%) without light irradiation [6, 14]: 0.0% | NAC Depletion (%) without light irradiation [6, 15]: 0.0%

COc1c2occc2cc2ccc(=O)oc12 [No. 3, 8-Methoxypsoralen, reference compound]
Average score (%) [2, 19]: 72.0% | NAL Depletion (%) [3, 19]: 45.4% | In vivo phototoxicity ([7]; in vivo): Positive | NAC Depletion (%) [6, 19]: 98.6% | In vivo photoallergy ([8]; in vivo): Positive

Cc1c([N+](=O)[O-])c(C)c([N+](=O)[O-])c(C(C)(C)C)c1[N+](=O)[O-] [No. 18, Musk xylene, reference compound]
Average score (%) [2, 19]: 47.6% | NAL Depletion (%) [3, 19]: 6.4% | In vivo phototoxicity ([7]; literature classification): Negative | NAC Depletion (%) [6, 19]: 88.9% | In vivo photoallergy ([8]; literature classification): Positive

CC1(C)S[C@@H]2[C@H](NC(=O)Cc3ccccc3)C(=O)N2[C@H]1C(=O)O [No. 44, Penicillin G, reference compound]
Average score (%) [2, 19]: 1.8% | NAL Depletion (%) [3, 19]: 1.2% | In vivo phototoxicity ([7]; literature classification): Negative | NAC Depletion (%) [6, 19]: 2.4% | In vivo photoallergy ([8]; literature classification): Negative

CCO [No. 50, Ethanol]
Average score (%) [2, 19]: 0.0% | In vivo phototoxicity ([7]; in vivo): Negative | In vivo photoallergy ([8]; in vivo): Negative

Tetrachlorosalicylanilide [No. 12, reference compound]
Average score (%) [2, 19]: 92.0% | NAL Depletion (%) [3, 19]: 86.5% | In vivo phototoxicity ([7]; literature classification): Positive | NAC Depletion (%) [6, 19]: 97.4% | In vivo photoallergy ([8]; literature classification): Positive
